Experiments:
glutathione (GSH) = experiment: Glutathione level (second Example 4); assay type: in vivo, rats; conditions: oral 14 days
Description: (§1) Distilled water was provided ad libitum. […] Ltd (Bangalore, India).
(§2) The following HED were used in this study: 50 mg paraxanthine, (ENFINITY™, Ingenious Ingredients, L.P Lewisville, TX, USA; rat dose: 5.141 mg/kg bw/day); 25 mg L-Theanine (rat dose: 2.570 mg/kg bw), and 50 mg paraxanthine plus 25 mg L-Theanine. 0.5% Carboxy Methyl Cellulose sodium was used as vehicle and the test item formulations were prepared daily. […] The last dose on day 14 was given 1 hour prior to testing.

male Swiss Albino mice = experiment: Treadmill endurance test (first Example 4, L-Theanine); assay type: in vivo; conditions: oral once daily 28 days, HED 50 mg paraxanthine, 25 mg L-Theanine
Description: as §1
The following HED were used in this study: 50 mg paraxanthine, (ENFINITY™ Ingenious Ingredients, L.P Lewisville, TX, USA; mouse dose: 10.275 mg/kg bw/day); 25 mg L-Theanine (mouse dose: 5.137 mg/kg bw), and 50 mg paraxanthine plus 25 mg L-Theanine. 0.5% Carboxy Methyl Cellulose sodium was used as vehicle and the test item formulations were prepared daily.
During the treatment period, exercise training was completed using a motorized treadmill (Exer 3/6, Columbus Instruments international, OH, USA) at a moderate intensity of 20 cm/sec as maximal running speed, an incline of ten degrees and a shock intensity of 0.2 mA, for ten minutes. The speed of the treadmill was manually adjusted by increasing the belt speed by 5 cm/sec every two minutes throughout the total duration of ten minutes. All animals were adapted to this procedure daily 60 minutes after dosing for five days in a week during the treatment period. 1.3. Treadmill Endurance Test
Muscle endurance was accomplished on a motorized treadmill at a low to moderate intensity of 5-50 cm/sec as maximal running speed, an incline of ten degrees and a shock intensity of 0.2 mA, with the belt speed being increased by 5 cm/sec every two minutes until it reaches 50 cm/sec. Animals were subjected to the treadmill test until exhaustion.

dopamine (dopa) = experiment: Dopamine concentration (second Example 4); assay type: in vivo, rats; conditions: oral 14 days
Description: as §1, §2

[1] = system: brain derived neuro factor, BDNF; experiment: BDNF level, neuroplasticity (second Example 4); assay type: in vivo, rats; conditions: oral 14 days
Description: as §1, §2

acetylcholine (Ach) = experiment: Acetylcholine concentration (second Example 4); assay type: in vivo, rats; conditions: oral 14 days
Description: as §1, §2

[2] = system: male Swiss Albino Wistar rats; experiment: Walter Morris Maze test (second Example 4, L-Theanine); assay type: in vivo; conditions: oral 14 days
Description: as §1, §2
The Walter Morris Maze test consisted of a circular pool in a room with geometric shapes on the wall serving as spatial cues. The pool, which is 70 cm in diameter and painted with black color, filled with 13 cm depth of 25±1° C. water. A platform (6 cm diameter) was placed into one quadrant of the pool and submerged 1 cm below the water surface. For the training, all rats were trained to locate the submerged platform in a constant location. The training day consisted of four trials. During training, a rat started at one of four starting points and allowed to swim until it located the platform or until 60 seconds had elapsed. The rat was allowed to remain on the platform for 15 seconds before being dried off and later was transferred to a holding cage. […] The animals were continuously trained 4 times at 4 starting points continued daily for 4 days, the main trial was conducted on the 15th & 16th day and the latency of escaping onto the platform was recorded.

CCNC(=O)CC[C@H](N)C(=O)O [L-Theanine, N5-ethyl-L-glutamine, reference compound]
glutathione (GSH) level (glutathione (GSH); old rats): 23.87 ± 0.45 µg/mL | glutathione (GSH) level (glutathione (GSH); young rats): 31.72 ± 0.53 µg/mL | distance travelled during treadmill exercise (male Swiss Albino mice): 295.17±6.11 m | dopamine (dopa) concentration (dopamine (dopa); old rats): 473.03 ± 6.05 ng/L | dopamine (dopa) concentration (dopamine (dopa); young rats): 528.18 ± 4.09 ng/L | BDNF ([1]; old rats): 789.1 ± 2.03 pg/mL | BDNF ([1]; young rats): 866 ± 8.66 pg/mL | acetylcholine (Ach) concentration (acetylcholine (Ach); old rats): 55.89±1.05 U/mL | acetylcholine (Ach) concentration (acetylcholine (Ach); young rats): 62.83±0.91 U/mL | escape latency ([2]; old rats (16-month-old)): 44.67 ± 2.16 s | escape latency ([2]; young rats (8-week-old)): 38.33 ± 2.07 s

From US12667574B2, “Paraxanthine-based bioactive composition and method of use thereof” (PX ING, LLC, priority 2021, dated 2026)
